Measurements published in PMC7591920, “A protein tertiary structure mimetic modulator of the Hippo signalling pathway” (Nature Communications, 2020).
Bridge positions count the residues as written; N and C are the ends. Peptide text beside a SMILES is read from it.

Tests used:
RKO cells [1] = assay: Sub-cellular (cytoplasmic, nuclear) peptide concentration in RKO cells by UPLC-MS; conditions: for Sub-cellular drug content, Cytoplasm / Sub-cellular drug content, Cytoplasm, Measured concentration / Sub-cellular drug content, Nuclear / Sub-cellular drug content, Nuclear, Measured concentration / Sub-cellular drug content, Cytoplasm, nMol / Sub-cellular drug content, Nuclear, nMol / Sub-cellular drug content, Cytoplasm, pMol.mg-1 / Sub-cellular drug content, Nuclear, pMol.mg-1: n = 2; for pMol/mg: Nuclear; for Cytoplasmic concentration of peptide: cytoplasmic fraction; for Nuclear concentration of peptide: nuclear fraction; for Sub-cellular drug content, Cytoplasm, pMol.mg-1 / Sub-cellular drug content, Nuclear, pMol.mg-1: per mg protein; for Cytoplasmic concentration, raw data / Nuclear concentration, raw data: sheet Figure 3c, 25 µM unlabelled peptide; for Intracellular concentration: mass spectrometry
Method: (§1) Peptides were incubated in RKO cells (ATCC, #CRL-2577) as follows: Experiment 1: RKO cells were incubated in 25 µM compound for 90 min and 24 h. Experiment 2: RKO cells were incubated in 25 µM for 30 min or 72 h. Following peptide incubation, the cells were washed twice with PBS, trypsinized and pelleted. The pellets were lysed in RIPA buffer (Perkin Elmer) for total lysis, or CelLytic NuCLEAR Extraction Kit (SIGMA) for subcellular fractionation. Total protein quantification BCA (Pierce) was performed prior to MS analysis to normalize sample data. Total and fractionated cell lysates were analysed by quantitative UPLC-MS utilizing a Waters Xevo TQ-XS (WBA0259) and an Acquity UPLC system from Waters consisting of Sample Manager (M16UFL953M), Acquity PDA (F17UPD457A), Column Oven (E17CMP703G) and Binary Solvent Manager (E17BUR621G). […] Chromatograms of the samples were treated similarly, and by linear regression (1/x) an in-cell concentration was established in the re-suspended cell lysate using the Waters MassLynx TargetLynx^TM product.

RKO cells [2] = assay: Total drug content in RKO cells by UPLC-MS; conditions: 25 µM compound; for Total drug content, Measured Concentration: RIPA total lysis, diluted lysate; for Total drug content, Measured Concentration / Total drug content / Measured Conc: UPLC-MS; for Total drug content, Measured Concentration / Total drug content: n = 2; for Total drug content: total lysis; for Measured Conc / pMol/mg of protein, Mean / pMol/mg, Mean: total drug content; for pMol/mg of protein, Mean / pMol/mg, Mean: mean of 2 replicates
Method: as §1

mTEAD4 = target: T1, mTEAD4 (Mus musculus, UniProt Q62296); assay: SPR binding to immobilised mTEAD4; conditions: mTEAD4 amine-coupled on CM5, multi-cycle, steady-state fit 1:1 model, 10 mM HEPES 150 mM NaCl 0.05% Tween-20 pH 7.4, 0.3% DMSO, 20 °C, Fig. 1 values n = 1 replicate
T1 construct: Mouse TEAD4(210–427) cDNA fused with a 6x His-tag and a 3C protease cleavage site; 6x His-tag; 3C protease cleavage site; made in house; host or cells: E. coli BL21 DE3 RIL(K+)
T1 sequence (Q62296 210-427): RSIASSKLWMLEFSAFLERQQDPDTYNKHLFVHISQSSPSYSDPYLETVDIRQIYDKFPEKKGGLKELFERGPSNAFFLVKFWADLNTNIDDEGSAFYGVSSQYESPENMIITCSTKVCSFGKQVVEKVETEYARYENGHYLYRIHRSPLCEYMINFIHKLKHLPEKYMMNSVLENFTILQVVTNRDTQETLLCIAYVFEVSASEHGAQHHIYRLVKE
Method: Sensor chips Series S CM5 (Research grade) were obtained from GE Healthcare. Prior to use, the sensor chips were equilibrated at room temperature for 15 min to prevent water condensation on the detector side of the sensor chip surface. A running buffer was prepared composed of 10 mM HEPES, 150 mM NaCl, and 0.05% (w/v) Tween-20, pH 7.4, and the system was equilibrated at 20 °C using a flow rate of 30 µL min^−1 after docking of the sensor chip. Ligand binding experiments have been performed applying the concept of multi-cycle kinetics. A contact time of 45 s was selected, followed by a 6-min dissociation phase to allow for complete dissociation of the analyte prior to the next cycle. […] Typically, seven concentrations of the analytes have been examined applying a threefold dilution pattern with 30 µM as top concentration. For the analysis, five running buffer blanks were injected to equilibrate the instrument. […] The carboxyl-dextran surface was activated for 7 min with 0.05 M NHS and 0.2 M EDC, followed by an injection of the proteins in 10 mM MES pH 6.4 at a concentration of 30–50 µg mL^−1. […] This was followed by a deactivation of the residual esters by injecting a solution of 0.5 M ethanolamine pH 8.0 for 7 min before engaging in ligand binding experiments. Reference surfaces were prepared accordingly, omitting the injection of protein over the activated reference surface.

[3] = 25 µM compound, 90 minutes, fractionation, UPLC-MS
[4] = 25 µM compound, 24 hours, fractionation, UPLC-MS
[5] = 90 minutes, dilution factor 10, replicate 1
[6] = 90 minutes, dilution factor 10, replicate 2
[7] = 24 hours, dilution factor 10, replicate 1
[8] = 24 hours, dilution factor 10, replicate 2

## CC(=O)NCC(=O)N[C@@H](CCCNC(=N)N)C(=O)N[C@@H](CCCCN)C(=O)N[C@@H](CCCCN)C(=O)N[C@@H](CCCNC(=N)N)C(=O)N[C@@H](CCCNC(=N)N)C(=O)N[C@@H](CCC(N)=O)C(=O)N[C@@H](CCCNC(=N)N)C(=O)N[C@@H](CCCNC(=N)N)C(=O)N[C@@H](CCCNC(=N)N)C(=O)N1CCC[C@H]1C(=O)N[C@@H](CCC(N)=O)C(N)=O [Tat, reference compound]
RKO cells [1]; [3]
  Sub-cellular drug content, Cytoplasm: 0.137 nmol
  Sub-cellular drug content, Cytoplasm, Measured concentration: 91.363 ± 8.748 nM
  Sub-cellular drug content, Nuclear: 0.6254 nmol
  Sub-cellular drug content, Nuclear, Measured concentration: 416.901 ± 142.802 nM
RKO cells [1]; [4]
  Sub-cellular drug content, Cytoplasm: 0.1476 nmol
  Sub-cellular drug content, Cytoplasm, Measured concentration: 98.42 ± 12.91 nM
  Sub-cellular drug content, Nuclear: 0.9853 nmol
  Sub-cellular drug content, Nuclear, Measured concentration: 656.841 ± 162.534 nM
RKO cells [1]; Cytoplasm, 25 µM compound, 90 minutes (1.5 hrs), mean of 2 replicates
  pMol/mg, Mean: 209 pMol/mg
RKO cells [1]; 25 µM compound, 90 minutes (1.5 hrs), replicate 1
  pMol/mg: 2567 pMol/mg
RKO cells [1]; 25 µM compound, 90 minutes (1.5 hrs), replicate 2
  pMol/mg: 4988 pMol/mg
RKO cells [1]; UPLC-MS, mean of n = 2
  Cytoplasmic concentration of peptide: 231.15 pMols/mg of protein
  Nuclear concentration of peptide: 3777.5 pMols/mg of protein
RKO cells [2]; 90 minutes
  Total drug content, Measured Concentration: 478.752 ± 163.021 nM
  pMol/mg of protein, Mean: 882.5 pMol/mg of protein
RKO cells [2]; 24 hours
  Total drug content, Measured Concentration: 1797.357 ± 596.21 nM
  Total drug content: 2.696 ± 0.8943 nmol
  pMol/mg, Mean: 1647 pMol/mg
RKO cells [2]; [5]
  Measured Conc: 641.773 nM
RKO cells [2]; [6]
  Measured Conc: 315.731 nM
RKO cells [2]; [7]
  Measured Conc: 2393.57 nM
RKO cells [2]; [8]
  Measured Conc: 1201.15 nM

## CC[C@H](C)[C@H](NC(=O)[C@H](CCC(N)=O)NC(=O)[C@H](CC(C)C)NC(=O)[C@H](Cc1c[nH]c2ccccc12)NC(=O)[C@@H](NC(=O)[C@H](CC(=O)O)NC(=O)CNC(=O)[C@H](CC(C)C)NC(=O)[C@H](C)NC(=O)[C@H](CCCCN)NC(=O)[C@H](C)NC(=O)[C@H](Cc1ccccc1)NC(=O)[C@H](Cc1c[nH]cn1)NC(=O)[C@H](CC(=O)O)NC(=O)[C@H](CC(=O)O)NC(=O)[C@@H](NC(=O)[C@H](CO)NC(C)=O)C(C)C)[C@@H](C)O)C(=O)N[C@@H](CCCCN)C(=O)N[C@@H](C)C(=O)N[C@@H](C)C(N)=O [compound 4] (Ac-SVDDHFAKALGDTWLQIKAA-NH2)
RKO cells [1]; [3]
  Sub-cellular drug content, Cytoplasm, Measured concentration: < LLOQ
  Sub-cellular drug content, Cytoplasm, nMol: < LLOQ
  Sub-cellular drug content, Nuclear, Measured concentration: < LLOQ
  Sub-cellular drug content, Nuclear, nMol: < LLOQ
  Sub-cellular drug content, Cytoplasm, pMol.mg-1: < LLOQ
  Sub-cellular drug content, Nuclear, pMol.mg-1: < LLOQ
RKO cells [1]; [4]
  Sub-cellular drug content, Cytoplasm, Measured concentration: < LLOQ
  Sub-cellular drug content, Cytoplasm, nMol: < LLOQ
  Sub-cellular drug content, Nuclear, Measured concentration: < LLOQ
  Sub-cellular drug content, Nuclear, nMol: < LLOQ
  Sub-cellular drug content, Cytoplasm, pMol.mg-1: < LLOQ
  Sub-cellular drug content, Nuclear, pMol.mg-1: < LLOQ
RKO cells [1]; UPLC-MS, raw data replicate 1
  Cytoplasmic concentration of peptide: <LLOQ
  Nuclear concentration of peptide: <LLOQ
RKO cells [1]; UPLC-MS, raw data replicate 2
  Cytoplasmic concentration of peptide: <LLOQ
  Nuclear concentration of peptide: <LLOQ
RKO cells [1]; UPLC-MS, replicate 1
  Cytoplasmic concentration, raw data: <LLOQ
  Nuclear concentration, raw data: <LLOQ
RKO cells [1]; UPLC-MS, replicate 2
  Cytoplasmic concentration, raw data: <LLOQ
  Nuclear concentration, raw data: <LLOQ
RKO cells [1]; unlabelled peptide 25 µM, 90 min and 24 h, fractionation, UPLC-MS
  Detection in cytoplasmic and nuclear fractions: not detected in subcellular fractions
RKO cells [1]; unlabelled peptide 25 µM, 90 min incubation, n = 2 biological replicates
  Intracellular concentration: < LLOQ
RKO cells [1]; unlabelled peptide 25 µM, 24 hours incubation, N = 2 biological replicates
  Intracellular concentration: < LLOQ
RKO cells [2]; 90 minutes
  Total drug content, Measured Concentration: 1133.521 ± 133.393 nM
  Total drug content: 1.7 ± 0.2001 nmol
  pMol/mg of protein, Mean: 1685.1 pMol/mg of protein
RKO cells [2]; 24 hours
  Total drug content, Measured Concentration: 322.145 ± 33.657 nM
  Total drug content: 0.4832 ± 0.05049 nmol
  pMol/mg, Mean: 331.25 pMol/mg
RKO cells [2]; [5]
  Measured Conc: 1266.91 nM
RKO cells [2]; [6]
  Measured Conc: 1000.13 nM
RKO cells [2]; [7]
  Measured Conc: 355.802 nM
RKO cells [2]; [8]
  Measured Conc: 288.488 nM

## CC[C@H](C)[C@@H]1NC(=O)[C@H](CCC(N)=O)NC(=O)[C@H](CC(C)C)NC(=O)[C@H](Cc2c[nH]c3ccccc23)NC(=O)[C@H]([C@@H](C)O)NC(=O)[C@H](CC(=O)O)NC(=O)CNC(=O)[C@H](CC(C)C)NC(=O)[C@H](C)NC(=O)[C@H](CCCCN)NC(=O)[C@H](C)NC(=O)[C@H](Cc2ccccc2)NC(=O)[C@H](Cc2c[nH]cn2)NC(=O)[C@H](CC(=O)O)NC(=O)[C@@H](NC(=O)[C@H](C)NC(=O)[C@H](CO)NC(C)=O)CCC(=O)NCCCC[C@@H](C(=O)N[C@@H](C)C(=O)N[C@@H](C)C(N)=O)NC1=O [compound 15] (Ac-SAEDHFAKALGDTWLQIKAA-NH2; lactam 3-18)
mTEAD4
  Kd: 1500 ± 370 nM

## CC[C@H](C)[C@@H]1NC(=O)[C@H](CCC(N)=O)NC(=O)[C@H](C)NC(=O)[C@H](Cc2c[nH]c3ccccc23)NC(=O)[C@H]([C@@H](C)O)NC(=O)[C@H](CC(=O)O)NC(=O)CNC(=O)[C@H](CC(C)C)NC(=O)[C@H](C)NC(=O)[C@H](CCCCN)NC(=O)[C@H](C)NC(=O)[C@H](Cc2ccccc2)NC(=O)[C@H](Cc2c[nH]cn2)NC(=O)[C@H](CC(=O)O)NC(=O)[C@@H](NC(=O)[C@@H](NC(=O)[C@H](CO)NC(C)=O)C(C)C)CCC(=O)NCCCC[C@@H](C(=O)N[C@@H](C)C(=O)N[C@@H](C)C(N)=O)NC1=O [compound 24] (Ac-SVEDHFAKALGDTWAQIKAA-NH2; lactam 3-18)
mTEAD4
  Kd: 2000 ± 140 nM
